# Measurements from US6358885B1, “Substituted phenylheterocyclic herbicides” (Mississippi State University, priority 1992, dated 2002).
# Columns and labels:
# Test in all cases: Test B preemergence/postemergence greenhouse plant response rating 0 to 10
# barley = type: in vivo, Hordeum vulgare; conditions: for Plant response rating, Barley: 0 to 10 scale
# In short: (§1)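 Both application timings were run together: seeds got compound preemergence, and established seedlings (two to eighteen cm) got it postemergence. Non-phytotoxic solvent carried the chemical. Ratings are visual, versus controls, at twelve to sixteen days.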
# barnyardgrass = type: in vivo, Echinochloa crus-galli; conditions: for Plant response rating, Barnyardgrass: 0 to 10 scale
# In short: as §1
# bedstraw = type: in vivo, Galium aparine; conditions: for Plant response rating, Bedstraw: 0 to 10 scale
# In short: as §1
# blackgrass = type: in vivo, Alopecurus myosuroides; conditions: for Plant response rating, Blackgrass: 0 to 10 scale
# In short: as §1
# cheatgrass = type: in vivo, Bromus secalinus; conditions: for Plant response rating, Cheatgrass: 0 to 10 scale
# In short: as §1
# chickweed = type: in vivo, Stellaria media; conditions: for Plant response rating, Chickweed: 0 to 10 scale
# In short: as §1
# cocklebur = type: in vivo, Xanthium pensylvanicum; conditions: for Plant response rating, Cocklebur: 0 to 10 scale
# In short: as §1
# corn = type: in vivo, Zea mays; conditions: for Plant response rating, Corn: 0 to 10 scale
# In short: as §1
# cotton = type: in vivo, Gossypium hirsutum; conditions: for Plant response rating, Cotton: 0 to 10 scale
# In short: as §1
# crabgrass = type: in vivo, Digitaria spp.; conditions: for Plant response rating, Crabgrass: 0 to 10 scale
# In short: as §1
# giant foxtail = type: in vivo, Setaria faberii; conditions: for Plant response rating, Giant foxtail: 0 to 10 scale
# In short: as §1
# lambsquarters = type: in vivo, Chenopodium album; conditions: for Plant response rating, Lambsquarter: 0 to 10 scale
# In short: as §1
# morningglory = type: in vivo, Ipomoea hederacea; conditions: for Plant response rating, Morningglory: 0 to 10 scale
# In short: as §1
# rape = type: in vivo, Brassica napus; conditions: for Plant response rating, Rape: 0 to 10 scale
# In short: as §1
# rice = type: in vivo, Oryza sativa; conditions: for Plant response rating, Rice: 0 to 10 scale
# In short: as §1
# sorghum = type: in vivo, Sorghum bicolor; conditions: for Plant response rating, Sorghum: 0 to 10 scale
# In short: as §1
# soybean = type: in vivo, Glycine max; conditions: for Plant response rating, Soybean: 0 to 10 scale
# In short: as §1
# sugar beet = type: in vivo, Beta vulgaris; conditions: for Plant response rating, Sugar beet: 0 to 10 scale
# In short: as §1
# velvetleaf = type: in vivo, Abutilon theophrasti; conditions: for Plant response rating, Velvetleaf: 0 to 10 scale
# In short: as §1
# wheat = type: in vivo, Triticum aestivum; conditions: for Plant response rating, Wheat: 0 to 10 scale
# In short: as §1
# wild buckwheat = type: in vivo, Polygonum convolvulus; conditions: for Plant response rating, Wild buckwheat: 0 to 10 scale
# In short: as §1
# wild oat = type: in vivo, Avena fatua; conditions: for Plant response rating, Wild oat: 0 to 10 scale
# In short: as §1
# purple nutsedge = type: in vivo, Cyperus rotundus; conditions: for Plant response rating, Nutsedge: 0 to 10 scale
# In short: as §1
compound,measurement,setting,value
C=CCOc1cc(-c2nn3c(c2Cl)CCCC3)c(Cl)cc1Cl [Compound 71],"Plant response rating, Barley","barley; POSTEMERGENCE, Rate 50 g/ha",3
same,"Plant response rating, Barley","barley; PREEMERGENCE, Rate 50 g/ha",0
same,"Plant response rating (0 to 10 scale), Barley","barley; PREEMERGENCE, Rate 200 g/ha",0
same,"Plant response rating, Barley","barley; Rate 200 g/ha, POSTEMERGENCE",4
same,"Plant response rating, Barnyardgrass","barnyardgrass; POSTEMERGENCE, Rate 50 g/ha",6
same,"Plant response rating, Barnyardgrass","barnyardgrass; PREEMERGENCE, Rate 50 g/ha",0
same,"Plant response rating (0 to 10 scale), Barnyardgrass","barnyardgrass; PREEMERGENCE, Rate 200 g/ha",5
same,"Plant response rating, Barnyardgrass","barnyardgrass; Rate 200 g/ha, POSTEMERGENCE",8
same,"Plant response rating, Bedstraw","bedstraw; POSTEMERGENCE, Rate 50 g/ha",8
same,"Plant response rating, Bedstraw","bedstraw; PREEMERGENCE, Rate 50 g/ha",2
same,"Plant response rating (0 to 10 scale), Bedstraw","bedstraw; PREEMERGENCE, Rate 200 g/ha",6
same,"Plant response rating, Bedstraw","bedstraw; Rate 200 g/ha, POSTEMERGENCE",9
same,"Plant response rating, Blackgrass","blackgrass; POSTEMERGENCE, Rate 50 g/ha",4
same,"Plant response rating, Blackgrass","blackgrass; PREEMERGENCE, Rate 50 g/ha",0
same,"Plant response rating (0 to 10 scale), Blackgrass","blackgrass; PREEMERGENCE, Rate 200 g/ha",0
same,"Plant response rating, Blackgrass","blackgrass; Rate 200 g/ha, POSTEMERGENCE",6
same,"Plant response rating, Cheatgrass","cheatgrass; POSTEMERGENCE, Rate 50 g/ha",4
same,"Plant response rating, Cheatgrass","cheatgrass; PREEMERGENCE, Rate 50 g/ha",0
same,"Plant response rating (0 to 10 scale), Cheatgrass","cheatgrass; PREEMERGENCE, Rate 200 g/ha",2
same,"Plant response rating, Cheatgrass","cheatgrass; Rate 200 g/ha, POSTEMERGENCE",6
same,"Plant response rating, Chickweed","chickweed; POSTEMERGENCE, Rate 50 g/ha",2
same,"Plant response rating, Chickweed","chickweed; PREEMERGENCE, Rate 50 g/ha",0
same,"Plant response rating (0 to 10 scale), Chickweed","chickweed; PREEMERGENCE, Rate 200 g/ha",0
same,"Plant response rating, Chickweed","chickweed; Rate 200 g/ha, POSTEMERGENCE",3
same,"Plant response rating, Cocklebur","cocklebur; POSTEMERGENCE, Rate 50 g/ha",7
same,"Plant response rating, Cocklebur","cocklebur; PREEMERGENCE, Rate 50 g/ha",0
same,"Plant response rating (0 to 10 scale), Cocklebur","cocklebur; PREEMERGENCE, Rate 200 g/ha",0
same,"Plant response rating, Cocklebur","cocklebur; Rate 200 g/ha, POSTEMERGENCE",8
same,"Plant response rating, Corn","corn; POSTEMERGENCE, Rate 50 g/ha",3
same,"Plant response rating, Corn","corn; PREEMERGENCE, Rate 50 g/ha",0
same,"Plant response rating (0 to 10 scale), Corn","corn; PREEMERGENCE, Rate 200 g/ha",2
same,"Plant response rating, Corn","corn; Rate 200 g/ha, POSTEMERGENCE",3
same,"Plant response rating, Cotton","cotton; POSTEMERGENCE, Rate 50 g/ha",10
same,"Plant response rating, Cotton","cotton; PREEMERGENCE, Rate 50 g/ha",0
same,"Plant response rating (0 to 10 scale), Cotton","cotton; PREEMERGENCE, Rate 200 g/ha",0
same,"Plant response rating, Cotton","cotton; Rate 200 g/ha, POSTEMERGENCE",10
same,"Plant response rating, Crabgrass","crabgrass; POSTEMERGENCE, Rate 50 g/ha",3
same,"Plant response rating, Crabgrass","crabgrass; PREEMERGENCE, Rate 50 g/ha",0
same,"Plant response rating (0 to 10 scale), Crabgrass","crabgrass; PREEMERGENCE, Rate 200 g/ha",5
same,"Plant response rating, Crabgrass","crabgrass; Rate 200 g/ha, POSTEMERGENCE",3
same,"Plant response rating, Giant foxtail","giant foxtail; POSTEMERGENCE, Rate 50 g/ha",5
same,"Plant response rating, Giant foxtail","giant foxtail; PREEMERGENCE, Rate 50 g/ha",0
same,"Plant response rating (0 to 10 scale), Giant foxtail","giant foxtail; PREEMERGENCE, Rate 200 g/ha",8
same,"Plant response rating, Giant foxtail","giant foxtail; Rate 200 g/ha, POSTEMERGENCE",6
same,"Plant response rating, Lambsquarter","lambsquarters; POSTEMERGENCE, Rate 50 g/ha",10
same,"Plant response rating, Lambsquarter","lambsquarters; PREEMERGENCE, Rate 50 g/ha",10
same,"Plant response rating (0 to 10 scale), Lambsquarter","lambsquarters; PREEMERGENCE, Rate 200 g/ha",10
same,"Plant response rating, Lambsquarter","lambsquarters; Rate 200 g/ha, POSTEMERGENCE",10
same,"Plant response rating, Morningglory","morningglory; POSTEMERGENCE, Rate 50 g/ha",10
same,"Plant response rating, Morningglory","morningglory; PREEMERGENCE, Rate 50 g/ha",0
same,"Plant response rating (0 to 10 scale), Morningglory","morningglory; PREEMERGENCE, Rate 200 g/ha",0
same,"Plant response rating, Morningglory","morningglory; Rate 200 g/ha, POSTEMERGENCE",10
same,"Plant response rating, Rape","rape; POSTEMERGENCE, Rate 50 g/ha",8
same,"Plant response rating, Rape","rape; PREEMERGENCE, Rate 50 g/ha",0
same,"Plant response rating (0 to 10 scale), Rape","rape; PREEMERGENCE, Rate 200 g/ha",3
same,"Plant response rating, Rape","rape; Rate 200 g/ha, POSTEMERGENCE",10
same,"Plant response rating, Rice","rice; POSTEMERGENCE, Rate 50 g/ha",4
same,"Plant response rating, Rice","rice; PREEMERGENCE, Rate 50 g/ha",0
same,"Plant response rating (0 to 10 scale), Rice","rice; PREEMERGENCE, Rate 200 g/ha",0
same,"Plant response rating, Rice","rice; Rate 200 g/ha, POSTEMERGENCE",5
same,"Plant response rating, Sorghum","sorghum; POSTEMERGENCE, Rate 50 g/ha",6
same,"Plant response rating, Sorghum","sorghum; PREEMERGENCE, Rate 50 g/ha",0
same,"Plant response rating (0 to 10 scale), Sorghum","sorghum; PREEMERGENCE, Rate 200 g/ha",0
same,"Plant response rating, Sorghum","sorghum; Rate 200 g/ha, POSTEMERGENCE",6
same,"Plant response rating, Soybean","soybean; POSTEMERGENCE, Rate 50 g/ha",6
same,"Plant response rating, Soybean","soybean; PREEMERGENCE, Rate 50 g/ha",0
same,"Plant response rating (0 to 10 scale), Soybean","soybean; PREEMERGENCE, Rate 200 g/ha",0
same,"Plant response rating, Soybean","soybean; Rate 200 g/ha, POSTEMERGENCE",7
same,"Plant response rating, Sugar beet","sugar beet; POSTEMERGENCE, Rate 50 g/ha",10
same,"Plant response rating, Sugar beet","sugar beet; PREEMERGENCE, Rate 50 g/ha",5
same,"Plant response rating (0 to 10 scale), Sugar beet","sugar beet; PREEMERGENCE, Rate 200 g/ha",10
same,"Plant response rating, Sugar beet","sugar beet; Rate 200 g/ha, POSTEMERGENCE",10
same,"Plant response rating, Velvetleaf","velvetleaf; POSTEMERGENCE, Rate 50 g/ha",10
same,"Plant response rating, Velvetleaf","velvetleaf; PREEMERGENCE, Rate 50 g/ha",0
same,"Plant response rating (0 to 10 scale), Velvetleaf","velvetleaf; PREEMERGENCE, Rate 200 g/ha",10
same,"Plant response rating, Velvetleaf","velvetleaf; Rate 200 g/ha, POSTEMERGENCE",10
same,"Plant response rating, Wheat","wheat; POSTEMERGENCE, Rate 50 g/ha",4
same,"Plant response rating, Wheat","wheat; PREEMERGENCE, Rate 50 g/ha",0
same,"Plant response rating (0 to 10 scale), Wheat","wheat; PREEMERGENCE, Rate 200 g/ha",2
same,"Plant response rating, Wheat","wheat; Rate 200 g/ha, POSTEMERGENCE",6
same,"Plant response rating, Wild buckwheat","wild buckwheat; POSTEMERGENCE, Rate 50 g/ha",10
same,"Plant response rating, Wild buckwheat","wild buckwheat; PREEMERGENCE, Rate 50 g/ha",0
same,"Plant response rating (0 to 10 scale), Wild buckwheat","wild buckwheat; PREEMERGENCE, Rate 200 g/ha",10
same,"Plant response rating, Wild buckwheat","wild buckwheat; Rate 200 g/ha, POSTEMERGENCE",10
same,"Plant response rating, Wild oat","wild oat; POSTEMERGENCE, Rate 50 g/ha",3
same,"Plant response rating, Wild oat","wild oat; PREEMERGENCE, Rate 50 g/ha",2
same,"Plant response rating (0 to 10 scale), Wild oat","wild oat; PREEMERGENCE, Rate 200 g/ha",2
same,"Plant response rating, Wild oat","wild oat; Rate 200 g/ha, POSTEMERGENCE",5
same,"Plant response rating, Nutsedge","purple nutsedge; POSTEMERGENCE, Rate 50 g/ha",2
same,"Plant response rating, Nutsedge","purple nutsedge; PREEMERGENCE, Rate 50 g/ha",0
same,"Plant response rating (0 to 10 scale), Nutsedge","purple nutsedge; PREEMERGENCE, Rate 200 g/ha",5
same,"Plant response rating, Nutsedge","purple nutsedge; Rate 200 g/ha, POSTEMERGENCE",2
